Columns and labels:
[1] = test system: serum antibodies of test subjects
[2] = test system: serum antibodies of test subjects; conditions: serum of 8 persons

Row | Substance | comparison of the cyclic and linear peptide, reactivity with sera [1] | reaction with serum of test subject [1] | reactivity with sera of test subjects [1] | immune responses of serum antibodies against the peptides [2]
1 | Biotin-aminocaproyl-RPKVRDQ [Peptide 3C] | more reactive with low signals with other subjects | higher reaction | Strong responses were observed from the serum of test subjects S5B | 
2 | Biotin-aminocaproyl-SRPRVRNIP [Peptide 2B] |  | high reaction | much weaker reactions | especially effective in binding with certain antibodies

Source: patent US20110191867A1
